Consider 17 compounds from US20260124214A1, “HETEROCYCLIC COMPOUNDS FOR USE IN THE TREATMENT OF CANCER” (ARTIOS PHARMA LIMITED, priority 2021, published 2026).

Where a name gives a salt, the structure may show the parent alone.

The target of this assay is T1, Human Polθ polymerase domain (aa1820-2590) (Homo sapiens, UniProt O75417).
T1 construct: Human Polθ polymerase domain (aa1820-2590) was expressed in E. Coli; made in house; host or cells: E. coli
T1 sequence (O75417 1820-2590): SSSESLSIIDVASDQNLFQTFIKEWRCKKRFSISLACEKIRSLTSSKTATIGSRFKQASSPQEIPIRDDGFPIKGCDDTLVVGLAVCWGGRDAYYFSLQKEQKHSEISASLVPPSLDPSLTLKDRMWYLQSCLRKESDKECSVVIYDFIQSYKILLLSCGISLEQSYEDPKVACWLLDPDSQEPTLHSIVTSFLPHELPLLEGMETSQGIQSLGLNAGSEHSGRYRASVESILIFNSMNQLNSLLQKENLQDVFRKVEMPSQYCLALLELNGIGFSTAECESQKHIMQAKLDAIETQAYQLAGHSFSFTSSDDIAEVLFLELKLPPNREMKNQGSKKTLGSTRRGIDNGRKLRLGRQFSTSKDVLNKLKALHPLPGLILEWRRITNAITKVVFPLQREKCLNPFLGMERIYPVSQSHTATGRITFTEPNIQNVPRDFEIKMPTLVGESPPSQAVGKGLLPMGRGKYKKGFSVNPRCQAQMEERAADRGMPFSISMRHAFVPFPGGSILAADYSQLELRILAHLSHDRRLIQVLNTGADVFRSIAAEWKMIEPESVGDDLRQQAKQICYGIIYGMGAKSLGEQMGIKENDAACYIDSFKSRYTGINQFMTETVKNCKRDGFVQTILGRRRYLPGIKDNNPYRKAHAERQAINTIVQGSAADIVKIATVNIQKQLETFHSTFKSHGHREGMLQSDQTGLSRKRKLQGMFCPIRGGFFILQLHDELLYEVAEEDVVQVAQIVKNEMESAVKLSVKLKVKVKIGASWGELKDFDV
The assay is described as follows: Polθ Polymerase Domain WT KI Assay (PicoGreen). Type of assay: biochemical. The following applies: 100 nM DNA substrate, 0.156 nM Polθ, initial rates vs inhibitor concentration. The gist of the method: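 E. coli-expressed human Polθ polymerase domain (aa1820-2590) on annealed DNA II Short/Long primer-template (1.2:1), in 25 mM Tris pH 7.5, NaCl, 5% glycerol, 0.01% Triton X-100, 0.1 mg/ml BSA, 1 mM DTT, 1% DMSO. EDTA-quenched timepoints to 180 min, PicoGreen fluorescence. Initial rates vs inhibitor concentration fitted four-parameter for KI.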
In turn, `Cc1cc(C(F)(F)F)cc(N2C(=O)C[C@@H]3CN(CCN4CC[C@H](C#N)C4)c4c(C)cccc4N(C)C(=O)[C@H]32)n1` [Example 70, (S)-1-(2-((3aR,11aS)-6,10-Dimethyl-1-(6-methyl-4-(trifluoromethyl)pyridin-2-yl)-2,11-dioxo-1,2,3,3a,4,10,11,11a-octahydro-5H-benzo[b]pyrrolo[2,3-f][1,4]diazocin-5-yl)ethyl)pyrrolidine-3-carbonitrile] registered an inhibitory constant (Ki) of 0.692 nM. The compound `Cc1cc(C(F)(F)F)cc(N2C(=O)C[C@@H]3CN(CCN4CC[C@@H](C#N)C4)c4c(C)cccc4N(C)C(=O)[C@H]32)n1` [Example 71, (R)-1-(2-((3aR,11aS)-6,10-Dimethyl-1-(6-methyl-4-(trifluoromethyl)pyridin-2-yl)-2,11-dioxo-1,2,3,3a,4,10,11,11a-octahydro-5H-benzo[b]pyrrolo[2,3-f][1,4]diazocin-5-yl)ethyl)pyrrolidine-3-carbonitrile] registered an inhibition constant Ki of 1.15 nM. Turning to `Cc1cc(C(F)(F)F)cc(N2C(=O)C[C@@H]3CN(CCN4CC[C@H](C(=O)N(C)C)C4)c4c(C)cccc4N(C)C(=O)[C@H]32)n1` [Example 72, (S)-1-(2-((3aR,11aS)-6,10-Dimethyl-1-(6-methyl-4-(trifluoromethyl)pyridin-2-yl)-2,11-dioxo-1,2,3,3a,4,10,11,11a-octahydro-5H-benzo[b]pyrrolo[2,3-f][1,4]diazocin-5-yl)ethyl)-N,N-dimethylpyrrolidine-3-carboxamide], the inhibitory constant (Ki) amounted to 0.969 nM. On to `Cc1cc(C(F)(F)F)cc(N2C(=O)C[C@@H]3CN(CCN4CC[C@@H](C(=O)N(C)C)C4)c4c(C)cccc4N(C)C(=O)[C@H]32)n1` [Example 73, (R)-1-(2-((3aR,11aS)-6,10-Dimethyl-1-(6-methyl-4-(trifluoromethyl)pyridin-2-yl)-2,11-dioxo-1,2,3,3a,4,10,11,11a-octahydro-5H-benzo[b]pyrrolo[2,3-f][1,4]diazocin-5-yl)ethyl)-N,N-dimethylpyrrolidine-3-carboxamide], for which the Ki turned out to be 8.12 nM. Compound `CC(=O)N1CCN(CCN2C[C@H]3CC(=O)N(c4cc(C(F)(F)F)cc(C)n4)[C@@H]3C(=O)N(C)c3cccc(C)c32)[C@@H](C)C1` [Example 74, (3aR,11aS)-5-(2-((S)-4-Acetyl-2-methylpiperazin-1-yl)ethyl)-6,10-dimethyl-1-(6-methyl-4-(trifluoromethyl)pyridin-2-yl)-1,3a,4,5,10,11a-hexahydro-2H-benzo[b]pyrrolo[2,3-f][1,4]diazocine-2,11(3H)-dione] returned a Ki of 1.21 nM. `Cc1cc(C(F)(F)F)cc(N2C(=O)C[C@@H]3CN(CCN4CCN5C(=O)COC[C@H]5C4)c4c(C)cccc4N(C)C(=O)[C@H]32)n1` [Example 75, (3aR,11aS)-6,10-Dimethyl-1-(6-methyl-4-(trifluoromethyl)pyridin-2-yl)-5-(2-((R)-4-oxohexahydropyrazino[2,1-c][1,4]oxazin-8(1H)-yl)ethyl)-1,3a,4,5,10,11a-hexahydro-2H-benzo[b]pyrrolo[2,3-f][1,4]diazocine-2,11(3H)-dione] came in with a Ki of 1.81 nM.

In turn, `Cc1cc(C(F)(F)F)cc(N2C(=O)C[C@@H]3CN(Cc4cc5n(n4)CCN(C)C5)c4c(Cl)cccc4N(C)C(=O)[C@H]32)n1` [Example 76, (3aR,11aS)-6-Chloro-10-methyl-5-((5-methyl-4,5,6,7-tetrahydropyrazolo[1,5-a]pyrazin-2-yl)methyl)-1-(6-methyl-4-(trifluoromethyl)pyridin-2-yl)-1,3a,4,5,10,11a-hexahydro-2H-benzo[b]pyrrolo[2,3-f][1,4]diazocine-2,11(3H)-dione] gave a Ki of 0.458 nM.

`Cc1cc(C(F)(F)F)cc(N2C(=O)C[C@@H]3CN(CC4CCNCC4)c4c(F)cccc4N(C)C(=O)[C@H]32)n1` [Example 77, (3aR,11aS)-6-Fluoro-10-methyl-1-(6-methyl-4-(trifluoromethyl)pyridin-2-yl)-5-(piperidin-4-ylmethyl)-1,3a,4,5,10,11a-hexahydro-2H-benzo[b]pyrrolo[2,3-f][1,4]diazocine-2,11(3H)-dione Hydrochloride] displayed a Ki of 11.3 nM.

Consider `Cc1cc(C(F)(F)F)cc(N2C(=O)C[C@@H]3CN(CC4CCNCC4)c4c(Cl)cccc4N(C)C(=O)[C@H]32)n1` [Example 78, (3aR,11aS)-6-Chloro-10-methyl-1-(6-methyl-4-(trifluoromethyl)pyridin-2-yl)-5-(piperidin-4-ylmethyl)-1,3a,4,5,10,11a-hexahydro-2H-benzo[b]pyrrolo[2,3-f][1,4]diazocine-2,11(3H)-dione], for which the Ki was 1.1 nM. As for `Cc1cc(C(F)(F)F)cc(N2C(=O)C[C@@H]3CN(CC4CCN(C)CC4)c4c(C)cccc4N(C)C(=O)[C@H]32)n1` [Example 79, (3aR,11aS)-6,10-Dimethyl-1-(6-methyl-4-(trifluoromethyl)pyridin-2-yl)-5-((1-methylpiperidin-4-yl)methyl)-1,3a,4,5,10,11a-hexahydro-2H-benzo[b]pyrrolo[2,3-f][1,4]diazocine-2,11(3H)-dione], affinity was put at a Ki of 1.36 nM.

As to `Cc1cc(C(F)(F)F)cc(N2C(=O)C[C@@H]3CN(Cc4cn5c(n4)CNCC5)c4c(C)cccc4N(C)C(=O)[C@H]32)n1` [Example 80, (3aR,11aS)-6,10-Dimethyl-1-(6-methyl-4-(trifluoromethyl)pyridin-2-yl)-5-((5,6,7,8-tetrahydroimidazo[1,2-a]pyrazin-2-yl)methyl)-1,3a,4,5,10,11a-hexahydro-2H-benzo[b]pyrrolo[2,3-f][1,4]diazocine-2,11(3H)-dione], affinity was put at a Ki of 0.186 nM. For `Cc1cc(C(F)(F)F)cc(N2C(=O)C[C@@H]3CN(Cc4nc5n(c4F)CCN(C)C5)c4c(Cl)cccc4N(C)C(=O)[C@H]32)n1` [Example 81, (3aR,11aS)-6-Chloro-5-((3-fluoro-7-methyl-5,6,7,8-tetrahydroimidazo[1,2-a]pyrazin-2-yl)methyl)-10-methyl-1-(6-methyl-4-(trifluoromethyl)pyridin-2-yl)-1,3a,4,5,10,11a-hexahydro-2H-benzo[b]pyrrolo[2,3-f][1,4]diazocine-2,11(3H)-dione hydrochloride] the value was 1 nM; for `Cc1cc(C(F)(F)F)cc(N2C(=O)C[C@@H]3CN(Cc4nc5n(c4C)CCN(C)C5)c4c(C)cccc4N(C)C(=O)[C@H]32)n1` [Example 82, (3aR,11aS)-5-((3,7-Dimethyl-5,6,7,8-tetrahydroimidazo[1,2-a]pyrazin-2-yl)methyl)-6,10-dimethyl-1-(6-methyl-4-(trifluoromethyl)pyridin-2-yl)-1,3a,4,5,10,11a-hexahydro-2H-benzo[b]pyrrolo[2,3-f][1,4]diazocine-2,11(3H)-dione], 0.431 nM.

`Cc1cc(C(F)(F)F)cc(N2C(=O)C[C@@H]3CN(Cc4nc5n(c4F)CCN(C)C5)c4c(C)cccc4N(C)C(=O)[C@H]32)n1` [Example 83, (3aR,11aS)-5-((3-Fluoro-7-methyl-5,6,7,8-tetrahydroimidazo[1,2-a]pyrazin-2-yl)methyl)-6,10-dimethyl-1-(6-methyl-4-(trifluoromethyl)pyridin-2-yl)-1,3a,4,5,10,11a-hexahydro-2H-benzo[b]pyrrolo[2,3-f][1,4]diazocine-2,11(3H)-dione]: the Ki worked out at 0.254 nM. For `Cc1cc(C(F)(F)F)cc(N2C(=O)C[C@@H]3CN(CC4CCN(C)CC4)c4c(Cl)cccc4N(C)C(=O)[C@H]32)n1` [Example 84, (3aR,11aS)-6-Chloro-10-methyl-1-(6-methyl-4-(trifluoromethyl)pyridin-2-yl)-5-((1-methylpiperidin-4-yl)methyl)-1,3a,4,5,10,11a-hexahydro-2H-benzo[b]pyrrolo[2,3-f][1,4]diazocine-2,11(3H)-dione] the value was 2.54 nM; for `Cc1cc(C(F)(F)F)cc(N2C(=O)C[C@@H]3CN(CC4CCN(C5COC5)CC4)c4c(Cl)cccc4N(C)C(=O)[C@H]32)n1` [Example 85, (3aR,11aS)-6-Chloro-10-methyl-1-(6-methyl-4-(trifluoromethyl)pyridin-2-yl)-5-((1-(oxetan-3-yl)piperidin-4-yl)methyl)-1,3a,4,5,10,11a-hexahydro-2H-benzo[b]pyrrolo[2,3-f][1,4]diazocine-2,11(3H)-dione], 0.622 nM. For `Cc1cc(C(F)(F)F)cc(N2C(=O)C[C@@H]3CN(CC4CCN(CCF)CC4)c4c(Cl)cccc4N(C)C(=O)[C@H]32)n1` [Example 86, (3aR,11aS)-6-Chloro-5-((1-(2-fluoroethyl)piperidin-4-yl)methyl)-10-methyl-1-(6-methyl-4-(trifluoromethyl)pyridin-2-yl)-1,3a,4,5,10,11a-hexahydro-2H-benzo[b]pyrrolo[2,3-f][1,4]diazocine-2,11(3H)-dione] the value was 1.3 nM.

In general, Ki refers to a measure of affinity in units of concentration, obtained from inhibition or displacement.
